Legend:
[1] = test system: HepG2 cells; assay: Cell viability in the presence of a mitochondrial inhibitor (rotenone 10 μM); format: cell-based
Description: (§1) Cytoprotection of HepG2 cells by naphthoquinones was quantified in the presence of the mitochondrial toxin, rotenone. Briefly, HepG2 cells were seeded in 96-well plates at 5000 cells/well in DMEM with 0.3 g/l glucose, 10% FBS and Penicillin-Streptomycin-Glutamine. After overnight incubation under standard conditions, cells were treated with the test compounds (10 μM) for 2 days before cells were challenged with 1 μM rotenone in the presence of 10 μM test compounds in Hank's balanced salt solution (HBSS) for 6 hours. This was followed by post-incubation for an additional 18 hours with only 10 μM test compounds in HBSS. For measurement of cell viability, cells were washed with 100 μL PBS twice and then lysed using 40 μL lysis solution (4 mM EDTA, 0.2% Triton X-100) for 5 min at room temperature (RT) on an orbital shaker at 200 rpm. Then 10 μL of the lysate was mixed with 90 μL of enzyme-substrate mixture (as described above) in a white 96 well plate and luminescence was measured immediately using a plate-reader (Fluoroscan Ascent, Thermo Scientific). The data is expressed as % viability compared to the untreated (no-rotenone) control.
The cytoprotective effects of representative compounds of Formula (I) were further examined in vitro in response to rotenone toxicity at (10 μM). […] Cells were treated with the representative compounds of Formula (I) compounds (10 μM) for 2 days before cells were challenged with 10 μM rotenone.
Vitamin K, Menadione and Idebenone were used as comparative controls.

[2] = test system: HepG2 cells; assay: Acute ATP rescue assay (impaired mitochondrial function, rotenone); format: cell-based
Description: HepG2 cells were seeded at a density of 5000 cells per well in a 96-well plate and incubated for 24 hours in DMEM with 0.3 g/l glucose, 10% FBS and Penicillin-Streptomycin-Glutamine. Cells were treated with 1 μM quinones in presence or absence of rotenone (10 μM), for 60 minutes in glucose-free DMEM ATP levels were quantified using luminescence from the ATP-dependent enzymatic oxidation of luciferin by luciferase. Cells were lysed in a volume of 40 μl (4 mM EDTA, 0.2% Triton X-100) for five minutes at room temperature (RT) on an orbital shaker at 200 rpm. […] Luminescence was quantified immediately using a multimode plate reader (Fluoroscan Ascent, Thermo Scientific). ATP levels were standardized to protein levels using a commercial BCA assay (Protein DC; BioRad) and changes were calculated as percentage relative to levels of DMSO-treated control cells. Data is expressed as % ATP compared to the untreated (no-rotenone) control.
Vitamin K, menadione and idebenone were used as comparative controls. DMSO was used as a control.

[3] = test system: HepG2 cells; assay: Rescue of cell viability in the presence of a mitochondrial inhibitor (rotenone 1 μM); format: cell-based
Description: as §1
The extent of protection of cellular viability against a rotenone challenge of representative compounds of Formula (I) is shown below in Table 5. Vitamin K, Menadione and Idebenone were used as comparative controls. DMSO was used as a control.

[4] = test system: HepG2 cells; assay: ATP rescue in the presence of a mitochondrial inhibitor (rotenone 10 μM); format: cell-based; details: compounds 10 uM for 2 days, then 10 μM rotenone challenge
Description: The extent of ATP rescue of representative compounds of Formula (I) were further examined in vitro in response to rotenone toxicity at (10 μM). […] Cells were treated with the representative compounds of Formula (I) compounds (10 μM) for 2 days before cells were challenged with 10 μM rotenone.

[5] = test system: HepG2 cells; assay: Extracellular lactate levels, enzyme-linked colorimetric assay; format: cell-based; details: HepG2 culture medium
Description: Lactate concentrations in culture medium were determined by an enzyme-linked colorimetric assay. Briefly, 150,000 HepG2 cells were seeded in normal growth media (DMEM, 10% FCS, Pen/Strep) in each well of a 6-well plate (Life Science, USA) and incubated for 24 h. The media was replaced with growth media containing (25 mM glucose,) with and without test compounds. Three untreated wells containing only cells were considered the experimental baseline control and all compounds were tested in three different wells simultaneously. Supernatants were collected after 48 h and transferred into 96-well format. After the addition of 90 μl of reaction buffer (10 mM KH2PO4 pH 7.8, 1 mg/ml BSA, 0.5 mM PMS, 2 mM EDTA, 0.6 mM DCPIP, 0.8 mM NAD+, 5 U/ml glutamate-pyruvate-transaminase, 1.5 mM glutamate, 12.5 U/ml lactate dehydrogenase) the plate was incubated at 30° C. inside a multimode plate reader (Multiscan Go, Thermo Scientific) and absorbance was measured at 600 nm over a period of 100 minutes. A standard curve was generated using media spiked with known lactate concentrations. Finally, protein levels were quantified and the lactate concentration of each well was standardized to its protein content and was then expressed as % of control.
The extent of lactate reduction in the cell culture media by the test compounds of the subject invention and the Comparative Compounds vitamin K, menadione and idebenone is shown below in Table 6.

Molecule | viability at 10 µM ([1]; Homo sapiens, HepG2, 48 h, read-out: CELL VIABILITY [%]) [%] | melting point [°C] | ATP rescue (in words) ([2]; HepG2, rotenone, comment on Table 4) | ATP rescue [%] ([2]; HepG2, 1 μM quinones with rotenone 10 μM, 60 minutes, glucose-free DMEM, % ATP compared to untreated (no-rotenone) control) | Protection of cell viability (in words) ([3]; HepG2, rotenone, comment on Table 5) | Viability [%] ([3]; HepG2, 10 μM test compound 2 days, 1 μM rotenone challenge 6 hours, 18 hours post-incubation, % of untreated (no-rotenone) control) | CELL VIABILITY [%] ([1]; HepG2, compounds 10 uM for 2 days, then 10 μM rotenone challenge) | % ATP RESCUE [4] [%] | Extracellular lactate [% control] ([5]; 25 mM glucose, supernatant after 48 h, standardized to protein) | Effect on lactate production (in words) ([5]; comment on the lactate table)
CC1=C(CCCCCCCCCCO)C(=O)c2ccccc2C1=O [UTA #2, 2-(10-Hydroxydecyl)-3 methyl-1,4-naphthoquinone] | 68.9 | 74 to 75 | – | – | – | – | – | – | – | –
Vitamin K [reference compound] | – | – | no or minor effects | 3.5 | no protective effect | 14.5 | 14.5 | 3.5 | 92.0 | slight but non-significant effect

Reference: US10934253B2, “Therapeutic compounds and methods” (UNIVERSITY OF TASMANIA, priority 2017, dated 2021)
